Legend:
MCF-7 cells = assay: Stability in aqueous solution (media, activity on MCF-7 by XTT); format: physicochemical, human; conditions: stored at 4° C. for 3 days
Protocol: To assess strigolactone analogs stability in aqueous solution, each strigolactone analog was diluted to the desired concentration in media and stored at 4° C. for 3 days, at which time the strigolactone analog containing media was overlayed onto MCF-7 cells seeded into 96 well plates in phenol free DMEM supplemented with 5% charcoal stripped serum. After 3 days growth and viability was assessed (XTT, ATCC) and results compared to cells treated with freshly diluted strigolactone analog (FIG. 15) (absorbance readings presented as % of controls. Average+SD). […] For this reason all strigolactone analogs were diluted fresh from acetone stocks into media to desired concentrations and overlayed onto cells within 1 hour. Where necessary, media was refreshed every 3 days.

HCT116 cells = assay: Annexin V / PI staining; format: cell-based, human; conditions: 48 hours, from 3.6%
Protocol: Cells were cultured for 48 hours under the same conditions as those used for the DNA content/cell cycle analysis. All the cells were collected and resuspended in 100 μl 1× Annexin V Binding Buffer (BD Biosciences, San Jose, Calif., USA). 2 μl FITC-Annexin V (BD Biosciences) was added and incubated for 10 min in the dark (room temperature). Cells were then stained with PI (Sigma, Saint Louis, Mo., USA) to a final concentration of 5 μg/ml and the cells were incubated at room temperature for 15 min in the dark. Then, 400 μl of Annexin V binding buffer were added and flow cytometry was performed using a BD FACSCalibur flow cytometer. Cells were considered to be apoptotic if they were Annexin V+/PI− (early apoptotic) and Annexin V+/PI+ (late apoptotic). Each analysis was performed using at least 20,000 events.
Chromosome condensation at mitosis is accompanied by phosphorylation of histone H3. Accordingly, in order to determine if cells were arresting at G2 or M phase, HCT116 cells were analyzed for pS10 Histone H3 following strigolactone analogs exposure. […] To further quantify whether the growth inhibition observed in-vitro following strigolactone treatment was due in part to apoptosis, HCT116 cells were dual stained with Annexin V and PI (Prodidium Iodide). Annexin V staining indicate the inversion of the inner leaflet of the plasma membrane an early event of apoptosis. Late apoptosis is characterized by loss of membrane integrity and cells become permeable to PI. […] Cells were incubated for 48 hours and then co-stained with annexin-V and PI (FIG. 12F). Following treatment with 10 ppm and 15 ppm MEB-55, the percentage of late apoptotic cell increased from 3.6% to 62% and 85% respectively (FIG. 12F, lower panel). […] Dual Annexin V/PI staining analysis was also carried out on two other colon cancer cell lines, (SW480, HT29) following strigolactone treatment. Increased apoptosis was also observed in these lines following MEB-55 treatment in a dose dependent manner (FIG. 12D).

Row | SMILES | Stability in aqueous solution: activity versus freshly diluted analog (MCF-7 cells) | Percentage of late apoptotic cells (Annexin V+/PI+) (HCT116 cells; 10 ppm) | Percentage of late apoptotic cells (Annexin V+/PI+) (HCT116 cells; 15 ppm)
1 | CC1=CC(O/C=C2\Cc3c(n(C)c4ccccc34)C2=O)OC1=O (racemic) [EG-5, (±) (2E)-4-methyl-2-(4-methyl-5-oxo-2,5-dihydrofuran-2-yloxymethylene)-1,4-dihydro-2H-cyclopenta[b]indol-3-one] | completely failed to inhibit MCF-7 growth | – | –
2 | CC1=CC(O/C=C2\Cc3c(n(C)c4cc(-c5cccs5)ccc34)C2=O)OC1=O (racemic) [MEB-55, (±) 2E-4-methyl-2-(4-methyl-5-oxo-2,5-dihydrofuran-2-yloxymethylene)-6-thiophen-2-yl-1,4-dihydro-2H-cyclopenta[b]indol-3-one] | – | 62% | 85%

— US10208007B2, “Use of strigolactones and strigolactone analogs for treating proliferative conditions” (The State of Israel, Ministry of Agriculture & Rural …, priority 2011, dated 2019)
